Experimental data reported in patent publication US10238710B2, “Peptide having anti-inflammatory, osteogenic and hair growth promoting activities, and use of same” (CAREGEN CO., LTD., priority 2014, dated 2019).

Columns and labels:
[1] = tested on: Ha3-II and keratin 14; test: RT-PCR of keratinocyte differentiation markers in HaCaT cells; assay type: cell-based, human; conditions: HaCaT, 0.1, 1 and 10 μg/ml, 24 hours
Procedure: The cells were treated with the peptides at different concentrations (0.1 μg/ml, 1 μg/ml, and 10 μg/ml), and then incubated in an incubator at 37° C. for 24 hours. […] RT-PCR was carried out using primers of respective markers (Ha3-II and keratin 14) and PCR pre-mix (Intron) to measure the changes in the expression of the markers.
Target-specific primer sequences used in PCR for keratinocyte differentiation markers were as follows: Ha3-II forward primer sequence, 5′-[…]-3′ and Ha3-II reverse primer, 5′-[…]-3′ (annealing temperature, 60° C.); Keratin14 forward primer sequence, 5′-[…]-3′ and Keratin14 reverse primer, 5′-[…]-3′ (annealing temperature, 60° C.)

[2] = tested on: Phospho-PI3K; test: Western blotting using osteoblasts (PI3K phosphorylation); assay type: cell-based; conditions: mouse osteoblast line, 50 μg/ml, 15 minutes
Procedure: The cells were treated with the peptides at 50 μg/ml for 15 minutes (positive control: HGF 50 ng/ml). The cells were treated with the cell lysis buffer to obtain a lysate, followed by protein quantification, and then western blotting was performed with respect to Phospho-PI3K (P-PI3K) using anti-pPI3K antibody (Santa Cruz Biotechnology, USA).

[3] = tested on: PI3K; test: Western blotting of cell signaling material, PI3K; assay type: cell-based, human; conditions: HFDPC, 1 and 10 μg/ml, 30 minutes and 60 minutes
Procedure: (§1) In order to observe the changes in the phosphorylation of ERK and the expression of PI3K, which are main signaling materials involved in cell proliferation in the human hair follicle dermal papilla cells, the cells were treated with the peptides of the present invention for 30 minutes and 60 minutes, and then subjected to western blotting using specific antibodies, thereby observing the pERK and PI3K changes. The test was carried out using anti-pERK antibody (Santa Cruz Biotechnology, USA) and anti-pPI3K antibody (Santa Cruz Biotechnology, USA).
(§2) The cells were treated with the cell lysis buffer to obtain a lysate, followed by protein quantification, and then western blotting was performed with respect to Phospho-ERK (pERK), PI3K, and β-catenin.

[4] = tested on: human hair follicle dermal papilla cells (HFDPC); test: Cell proliferation assay (SRB), HFDPC; assay type: cell-based; conditions: 1, 10 and 50 μg/ml, 72 hours
Procedure: (§3) In order to observe the cell proliferation effect on human hair follicle dermal papilla cells, human hair follicle germinal matrix cells, and human umbilical vein endothelial cells, which are main hair cells, each type of cells were seeded on a 96-well plate at a density of 3×10^3 cells/well, followed by incubation under conditions of 37° C. and 5% CO2 for 24 hours. After the medium was exchanged with the same culture medium completely excluding serum, the cells were treated with the peptides at different concentrations (1 μg/ml, 10 μg/ml, and 50 μg/ml), followed by incubation under the same conditions for 72 hours. After the incubation supernatant was removed, the cells were immobilized using ethanol, and washed three times with phosphate buffer saline (PBS). The wash solution was removed, and the cells were stained through the treatment with colorimetric SRB solution. After the cells were sufficiently washed with 1% acetic acid, the cells were observed using a microscope to observe the state of living cells. The absorbance was read at UV light of 560 nm, thereby measuring the survival conditions of cells

[5] = molecular target: T1, HGFR (Homo sapiens, UniProt P08581); test: Receptor binding assay (HGFR), ELISA; conditions: peptide coated 50 μg/25 μl, O.D. 450 nm
T1 construct: purchased R&D Systems
T1 sequence (P08581 25-1390): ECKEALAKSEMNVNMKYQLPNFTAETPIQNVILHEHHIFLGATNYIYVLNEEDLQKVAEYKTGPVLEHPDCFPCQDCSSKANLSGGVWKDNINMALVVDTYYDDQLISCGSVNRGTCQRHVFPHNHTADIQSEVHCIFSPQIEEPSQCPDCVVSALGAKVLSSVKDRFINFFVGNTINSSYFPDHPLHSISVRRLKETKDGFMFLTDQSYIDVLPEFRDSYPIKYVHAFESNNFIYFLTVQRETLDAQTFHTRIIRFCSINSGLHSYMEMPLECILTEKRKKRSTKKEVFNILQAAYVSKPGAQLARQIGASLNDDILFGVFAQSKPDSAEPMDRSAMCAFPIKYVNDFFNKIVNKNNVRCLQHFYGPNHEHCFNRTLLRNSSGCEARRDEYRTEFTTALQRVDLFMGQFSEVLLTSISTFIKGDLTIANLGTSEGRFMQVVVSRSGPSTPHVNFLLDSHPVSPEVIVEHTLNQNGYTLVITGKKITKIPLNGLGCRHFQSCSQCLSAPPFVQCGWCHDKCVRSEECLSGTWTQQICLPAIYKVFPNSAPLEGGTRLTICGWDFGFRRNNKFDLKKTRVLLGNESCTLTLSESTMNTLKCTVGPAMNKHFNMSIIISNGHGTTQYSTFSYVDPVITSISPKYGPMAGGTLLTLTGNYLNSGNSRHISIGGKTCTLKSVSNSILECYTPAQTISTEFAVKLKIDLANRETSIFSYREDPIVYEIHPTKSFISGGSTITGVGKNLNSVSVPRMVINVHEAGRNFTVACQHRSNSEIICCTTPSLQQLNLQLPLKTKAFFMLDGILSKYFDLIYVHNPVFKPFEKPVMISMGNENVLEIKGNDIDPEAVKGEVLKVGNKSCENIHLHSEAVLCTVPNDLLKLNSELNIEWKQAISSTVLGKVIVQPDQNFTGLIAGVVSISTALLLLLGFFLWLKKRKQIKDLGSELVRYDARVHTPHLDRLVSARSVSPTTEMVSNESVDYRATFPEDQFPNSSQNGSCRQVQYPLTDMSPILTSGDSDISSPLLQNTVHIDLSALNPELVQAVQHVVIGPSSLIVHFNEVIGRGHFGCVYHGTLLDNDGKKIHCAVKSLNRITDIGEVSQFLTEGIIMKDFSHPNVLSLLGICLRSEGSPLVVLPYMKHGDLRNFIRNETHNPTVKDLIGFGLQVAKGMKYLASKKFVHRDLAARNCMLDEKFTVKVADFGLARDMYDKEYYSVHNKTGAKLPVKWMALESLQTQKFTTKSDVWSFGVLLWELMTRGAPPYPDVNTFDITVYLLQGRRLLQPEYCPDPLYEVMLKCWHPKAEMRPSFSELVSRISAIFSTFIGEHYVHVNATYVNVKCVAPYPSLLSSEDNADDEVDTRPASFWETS
Procedure: (§4) On an ELISA plate, 50 μg/25 μl peptide and 25 μl of a coating buffer (20 mM sodium phosphate pH 9.6) were added and mixed, and then incubated at 4° C. overnight. After washing three times with PBST (300 μl), the blocking with 200 μl of a blocking buffer (3% BSA) was carried out at room temperature for 2 hours. After washing three times with PBST (300 μl), HGFR (R&D Systems) was added at 0.5 μg/1 ml per well, followed by incubation at room temperature for 2 hours. After washing three times with PBST (300 μl), anti-human IgG-HRP was diluted at 1:1,000, which was then added at 100 μl per well, followed by incubation at room temperature for 2 hours. After washing three times with PBST (300 μl), 100 μl of TMB solution was added, followed by color development. 50 μl of a stop solution (3 N H2SO4) was added to stop the reaction, and then the absorbance was read at O.D. 450 nm.

[6] = tested on: TNFR; test: Receptor binding assay (TNFR), ELISA; conditions: peptide coated 50 μg/25 μl, O.D. 450 nm, positive control TNF-α
[7] = tested on: Phospho-ERK (pERK); test: Western blotting of cell signaling material, ERK phosphorylation; assay type: cell-based, human; conditions: HFDPC, 1 and 10 μg/ml, 30 minutes and 60 minutes
Procedure: as §1, §2

[8] = tested on: KGF; test: Western blotting of hair growth protein KGF; assay type: cell-based, human; conditions: HFDPC, 0.1-50 μg/ml, 24 hours
Procedure: (§5) In order to observe the changes in the expression of IGF1, KGF, and Wnt3a, which are proteins involved in the development of hair roots in the human hair follicle dermal papilla cells, the cells were treated with the peptides of the present invention for 24 hours, and then subjected to western blotting using specific antibodies, thereby observing the changes in hair growth-related proteins.
(§6) The cells were stabilized by the incubation overnight, and then treated with the peptides at different concentrations (0.1-50 μg/ml) for 24 hours. The cells were treated with the cell lysis buffer to obtain a lysate, followed by protein quantification, and then western blotting was performed with respect to IGF-1, KGF, and Wnt3a.
(§7) The test was carried out using anti-IGF-1 antibody (Santa Cruz Biotechnology, USA), anti-KGF antibody (Santa Cruz Biotechnology, USA), and anti-Wnt3a antibody (Santa Cruz Biotechnology, USA).

[9] = tested on: IGF-1; test: Western blotting of hair growth protein IGF-1; assay type: cell-based, human; conditions: HFDPC, 0.1-50 μg/ml, 24 hours
Procedure: as §5, §6, §7

[10] = tested on: human umbilical vein endothelial cells (HUVEC); test: Cell proliferation assay (SRB), HUVEC; assay type: cell-based; conditions: 1, 10 and 50 μg/ml, 72 hours
Procedure: as §3

[11] = tested on: IL-8; test: IL-8 ELISA in THP-1 cells treated with TNF-α; assay type: cell-based, human; conditions: 10 μg/ml pre-treatment 30 minutes, 50 ng/ml TNF-α, 24 hours
Procedure: (§8) The human monocytes, THP-1 cells were seeded on a 24-well plate at a density of 2×10^6 cells/well. After incubation overnight, the cells were pre-treated with the samples at 10 μg/ml for 30 minutes, and treated with 50 ng/ml TNF-α, followed by incubation for 24 hours. The cell incubation medium was obtained, followed by centrifugation at 13,000 rpm for 10 minutes at 4° C., and then the supernatant was separated. ELISA was carried out using IL-1b and IL-8 ELISA kit (R&D system).

[12] = tested on: β-catenin; test: Western blotting of cell signaling material, β-catenin; assay type: cell-based, human; conditions: HFDPC, 1 and 10 μg/ml, 30 minutes and 60 minutes
Procedure: as §1, §2

[13] = tested on: Wnt3a; test: Western blotting of hair growth protein Wnt3a; assay type: cell-based, human; conditions: HFDPC, 0.1-50 μg/ml, 24 hours
Procedure: as §5, §6, §7

[14] = tested on: IL-1β; test: IL-1β ELISA in THP-1 cells treated with TNF-α; assay type: cell-based, human; conditions: 10 μg/ml pre-treatment 30 minutes, 50 ng/ml TNF-α, 24 hours
Procedure: as §8

[15] = tested on: DKK-1; test: Western blotting of DKK-1 with hair loss causing hormone DHT; assay type: cell-based, human; conditions: HFDPC, 48 hours
Procedure: The cells were treated with DHT and the peptides for 48 hours, and then subjected to western blotting with respect to DKK-1 using specific antibodies, thereby observing the expression of DKK-1.
The human hair follicle dermal papilla cells were seeded on a 6-well plate at a density of 1×10^5 cells/well. The cells were stabilized by incubation overnight, and then treated with 5 μg/ml DHT (Sigma Aldrich) together with the peptides at different concentrations (1 μg/ml and 10 μg/ml) for 48 hours. The cells were treated with the cell lysis buffer to obtain a lysate, followed by protein quantification, and then western blotting was performed with respect to DKK-1 using anti-DKK-1 antibody (Santa Cruz Biotechnology, USA).

[16] = tested on: human hair follicle germinal matrix cells (HFGMC); test: Cell proliferation assay (SRB), HFGMC; assay type: cell-based; conditions: 1, 10 and 50 μg/ml, 72 hours
Procedure: as §3

[17] = tested on: Phospho-smad1/5/8; test: Western blotting using osteoblasts (Smad1/5/8 phosphorylation); assay type: cell-based; conditions: mouse osteoblast line, 50 μg/ml, 15 minutes and 30 minutes
Procedure: The cells incubated overnight were incubated in a serum-free medium for 24 hours, and then treated with the peptide at 50 μg/ml for 15 minutes and 30 minutes (positive control; BMP4 50 ng/ml). The cells were treated with the cell lysis buffer to obtain a lysate, followed by protein quantification, and then western blotting was performed with respect to Phospho-smad1/5/8 (P-smad1/5/8) using anti-p-smad1/5/8 antibody (Santa Cruz Biotechnology, USA).

[18] = molecular target: T2, BMPR-IB (Homo sapiens, UniProt O00238); test: Receptor binding assay (BMPR), ELISA; conditions: peptide coated 50 μg/25 μl, O.D. 450 nm, positive control BMP4
T2 construct: purchased R&D Systems
T2 sequence (O00238 14-502): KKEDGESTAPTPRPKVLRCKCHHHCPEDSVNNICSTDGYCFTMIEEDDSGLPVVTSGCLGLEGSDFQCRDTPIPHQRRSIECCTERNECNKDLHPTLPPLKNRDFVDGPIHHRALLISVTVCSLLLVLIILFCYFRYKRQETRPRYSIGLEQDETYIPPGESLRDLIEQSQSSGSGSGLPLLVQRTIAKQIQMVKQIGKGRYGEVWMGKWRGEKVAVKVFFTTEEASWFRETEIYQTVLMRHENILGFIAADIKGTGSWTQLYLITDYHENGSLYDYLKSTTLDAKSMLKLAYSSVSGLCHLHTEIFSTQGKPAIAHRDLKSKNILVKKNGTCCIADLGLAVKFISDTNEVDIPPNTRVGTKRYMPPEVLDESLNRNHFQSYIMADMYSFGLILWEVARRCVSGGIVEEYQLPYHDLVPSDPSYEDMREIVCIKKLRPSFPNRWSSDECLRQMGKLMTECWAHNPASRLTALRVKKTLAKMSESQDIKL
Procedure: as §4, with “In” for “On”, “BMPR-IB” for “HGFR”, “determined” for “read”

NH2-Ala-Cys-Asp-Gly-Arg-Thr-Gln-Ala-Leu-Cys-COOH (H-ACDGRTQALC-OH; cysteine pairing not given here) [SEQ ID NO: 3]
mRNA expression levels of differentiation markers Ha3-II and keratin 14 [1]: keratinocyte differentiation promoting effect | phosphorylation of PI3K by HGFR signal stimulation [2]: increased | level of PI3K [3]: increased | cell proliferation, HFDPC [4]: increased in a concentration-dependent manner | binding affinity on HGFR [5]: high binding affinity | binding affinity to TNFR [6]: high binding affinity | phosphorylation of ERK [7]: increased | expression of KGF [8]: increased | expression of IGF-1 [9]: increased | cell proliferation, HUVEC [10]: increased in a concentration-dependent manner | expression of IL-8 increased by TNF-α treatment [11]: inhibited | expression of β-catenin [12]: increased | expression of Wnt3a [13]: increased | expression of IL-1β increased by TNF-α treatment [14]: inhibited | expression of DKK-1 increased by DHT ([15]; 5 μg/ml DHT together with peptide 1 and 10 μg/ml): reduced | cell proliferation, HFGMC [16]: increased in a concentration-dependent manner

C[C@]12CCC(=O)C[C@@H]1CC[C@@H]1[C@@H]2CC[C@]2(C)[C@@H](O)CC[C@@H]12 [DHT, dihydrotestosterone, reference compound]
expression of DKK-1 ([15]; treatment with DHT 5 μg/ml alone): increased

NH2-Ala-Cys-Phe-Thr-Arg-Thr-Ser-His-Ala-Cys-COOH (H-ACFTRTSHAC-OH; cysteine pairing not given here) [SEQ ID NO: 2]
binding affinity to TNFR [6]: high binding affinity | expression of IL-8 increased by TNF-α treatment [11]: inhibited | phosphorylation of Smad1/5/8 by BMPR signal stimulation [17]: increased | binding affinity on BMPR [18]: high binding affinity | expression of IL-1β increased by TNF-α treatment [14]: inhibited
